Here are results for two molecules from EPA's ToxValDB 9.5 (doi:10.2903/j.efsa.2010.1718).

Usually NOAEL stands for the highest tested level that showed no adverse finding. A word on the LOAEL: it is the lowest dose or exposure tested at which an adverse effect was seen.

Converted amounts (≈) assume the structure as drawn.

Data set [1] deals with Anas platyrhynchos.
In data set [2] the test system is Apis mellifera. The settings on record: acute; duration: 48 hours; dermal; mortality.
Data set [3] concerns Colinus virginianus.
The subject of data set [4] is Daphnia magna. The settings on record: chronic/long-term; duration: 21 days; reproduction.
Data set [5] has as its system Lepomis macrochirus. As to conditions: acute; duration: 96 hours; mortality.
Data set [6] concerns Oryctolagus sp. The settings on record: reproduction developmental; body weight.
Data set [7] has as its system Pimephales promelas. The settings on record: chronic/long-term; duration: 265 days; growth.
For data set [8], the system named is Rattus norvegicus.
Data set [9] relates to Tagia sp.
Data set [10] has as its system Aphidius rhopalosiphi. The experiment in a line: LR50; higher = less toxic. The settings on record: not reported; mortality.
The subject of data set [11] is Bibionidae. The settings on record: chronic/long-term; duration: 28 days.

As to `COC(=O)C(C)Oc1ccc(Oc2ccc(Cl)cc2Cl)cc1` (racemic) [(+-)-Diclofop-methyl], the NOEC in [1] (reproductive) stood at 25 mg/kg-day; in [3] (reproduction developmental) it was 20 mg/kg-day; in [4] it was 0.081 mg/L; in [7] it was 0.015 mg/L. Moreover, the LC50 in data set [1] (short-term, oral, feed, mortality) is > 1100 mg/kg-day; in data set [3] (acute, oral, diet, mortality), > 2880 mg/kg-day; in data set [5] it was 0.15 µg/mL (≈ 0.44 µM); in data set [9] (acute, duration: 14 days, mortality), > 1000 mg/kg. The LD50 in data set [2] is > 100 µg/piece; in data set [3] (acute, oral, mortality), > 2250 mg/kg-day; in data set [8] (acute, oral, mortality), 512 mg/kg-day. Besides, the no observed adverse effect level (NOAEL) was determined as 0.3 mg/kg-day in data set [6] and 3 mg/kg-day in data set [8] (reproduction developmental, no effects). The NOEL in [8] (chronic) amounted to 7.8 mg/kg-day. Moreover, the lowest-observed-adverse-effect level (LOAEL) in [8] (chronic, duration: 2 years, histopathology: nonneoplastic) came out at 0.2 mg/kg-day. The molecule further gave an LR50 in [10] of 30.1 g/ha.

Turning to `CC(Oc1ccc(Oc2ccc(Cl)cc2Cl)cc1)C(=O)O` (stereo not drawn) [Diclofop], the NOEC in data set [11] came out at 10 mg/L; in [9] (chronic/long-term, duration: 56 days) it was 100 mg/kg.
